The data set concerns the target IRF5. The following applies: ASO.

“And” between values parts separate entries of the source, which are not always exact repeats. Identical values can stand only once. After the bases stand the sugars from the 5' end (letter, count) and the backbone: PS all phosphorothioate, else s phosphorothioate and o phosphodiester by linkage. Methylation of C is not given here. [mop] = methoxypropylphosphonate linkage; e = 2'-O-(2-methoxyethyl) (MOE); k = constrained ethyl (cEt); d = 2'-deoxy (DNA); m = 2'-O-methyl

Regarding AAGATGGTGTTATCTC (sugars k3 d10 k3, PS), under “KARPAS-229, 4 µM”, the target mRNA inhibition is 0%.
Where the note is “KARPAS-229, 4 µM”, “AAGGGCACAGACGCAGG (sugars k3 d10 k3 d1, PS)” returned a target mRNA inhibition of 0%.
AAGGGCACAGCGCAGG (sugars k2 d11 k3, PS): the target mRNA inhibition (KARPAS-229, 4 µM) was 0% and 2%.
The same measure, in the same setting: as for “AAGGGCACAGCGCAGG (sugars kddddddddddkekek, PS)”, the figure is 0%; as for “AAGGGCACAGCGCAGG (sugars kkdddddddddkekek, PS)”, 0%.
With “ACATCTCCACATCAGT (sugars k2 d8 e4 k2, PS)”, under “KARPAS-229, 4 µM”, the target mRNA inhibition came to 24%.
For the sequence “ACATCTCCACATCAGT (sugars kkdddddddddkekek, PS)”, the target mRNA inhibition (KARPAS-229, 4 µM) was found to be 16%.
For the setting “KARPAS-229, 4 µM”, “ACCACTGTGTACCCCA (sugars k3 d9 k3 e1, PS)” yielded a target mRNA inhibition of 47%.
Still for that read-out and setting: as for “ACCACTGTGTACCCCA (sugars kddddddddddkekek, PS)”, the figure is 43%.
As for “ACCATTCTATGCCTTT (sugars k3 d9 k3 e1, PS)”, the target mRNA inhibition was 33% (KARPAS-229, 0.44444 µM); 56% (KARPAS-229, 1.33333 µM); 59% and 61% (KARPAS-229, 4 µM); 75% (KARPAS-229, 12 µM).
On to “ACCATTCTATGCCTTT (sugars kekdddddddddeekk, PS)”, for which the target mRNA inhibition (KARPAS-229, 4 µM) is 51%.
In turn, “ACCATTCTATGCCTTT (sugars kkkddddddddkdkdk, PS)” registered a target mRNA inhibition (KARPAS-229, 4 µM) of 11%.
Turning to “ACTGACACAGGCGGAT (sugars k3 d9 k3 e1, PS)”, the target mRNA inhibition (KARPAS-229, 4 µM) came out at 0%.
In turn, “ACTGACACAGGCGGAT (sugars kkkddddddddkekek, PS)” came in with a target mRNA inhibition (KARPAS-229, 4 µM) of 0%.
The sequence AGATGGTGTTATCTCC (sugars k3 d10 k3, PS) gave a target mRNA inhibition (KARPAS-229, 4 µM) of 0%.
“AGATGGTGTTATCTCC (sugars kkddddddddddkeke, PS)” gave a target mRNA inhibition (KARPAS-229, 4 µM) of 0%.
The same measure, in the same setting: as for “AGATGGTGTTATCTCC (sugars kkkdddddddddkeke, PS)”, the figure is 8%; as for “AGATGGTGTTATCTCC (sugars kkkddddddddkdkdk, PS)”, 0%.
In the case of “AGCTTGGTCTTGACCT (sugars k3 d9 k3 e1, PS)”, the target mRNA inhibition (KARPAS-229, 4 µM) is 10%.
Same read-out and setting: to “AGCTTGGTCTTGACCT (sugars kkkdddddddddkeke, PS)” belongs 26%; to AGCTTTCTTGTCTAGT (sugars k3 d10 k3, PS), 20%.
For the sequence “AGGAAGTGAGTCTCAA (sugars kdddddddddkekeke, PS)”, the target mRNA inhibition (KARPAS-229, 4 µM) is 23%.
The same measure, in the same setting: as for “AGGAGTGAGACGAGCA (sugars kkddddddddddkeke, PS)”, the figure is 28%; as for AGGTTCTTGGACTCTC (sugars k3 d10 k3, PS), 0%; as for “AGGTTCTTGGACTCTC (sugars kdddddddddkekeke, PS)”, 0%.
On to “AGGTTCTTGGACTCTC (sugars kkdddddddddkdkdk, PS)”, for which the target mRNA inhibition (KARPAS-229, 4 µM) was found to be 36%.
“AGGTTCTTGGACTCTC (sugars kkkddddddddkekek, PS)” gave a target mRNA inhibition (KARPAS-229, 4 µM) of 8%.
As for AGTAGGACGAGTTATG (sugars k3 d10 k3, PS), the target mRNA inhibition (KARPAS-229, 4 µM) is 0%.
For AGTGAGACGAGCAAAG (sugars k3 d10 k3, PS), the target mRNA inhibition (KARPAS-229, 4 µM) was determined as 16%.
Still for that read-out and setting: to ATACCCAATGCAACAT (sugars k3 d10 k3, PS) belongs 1%.
As for ATCTGATATGATACCT (sugars k3 d10 k3, PS), under “KARPAS-229, 4 µM”, the target mRNA inhibition came to 36%.
Take ATGAGTAATAGGAGTG (sugars k3 d10 k3, PS): the target mRNA inhibition by setting is: (KARPAS-229, 0.44444 µM) 15%; (KARPAS-229, 1.33333 µM) 46%; (KARPAS-229, 4 µM) 56% and 52%; (KARPAS-229, 12 µM) 70%.
In the case of “ATGAGTCATGGGCTGA (sugars kkkddddddddkekek, PS)”, where the note is “KARPAS-229, 4 µM”, the target mRNA inhibition turned out to be 0%.
For the setting “KARPAS-229, 4 µM”, ATGCAACATCCATCAA (sugars k3 d10 k3, PS) had a target mRNA inhibition of 0%.
On the same count and under the same terms, to “CAATGCAACATCCATC (sugars kddddddddddkekek, PS)” belongs 0%; to “CACATCTCCACATCAG (sugars kkddddddddkekekk, PS)”, 17%.
Regarding “CACATCTCCACATCAG (sugars kkkddddddddkekek, PS)”, where the note is “KARPAS-229, 4 µM”, the target mRNA inhibition turned out to be 43%.
Regarding “CACCACTGTGTACCCC (sugars kddddddddddkekek, PS)”, under “KARPAS-229, 4 µM”, the target mRNA inhibition is 0%.
Still for that read-out and setting: as for “CACTGACACAGGCGGA (sugars kkkdddddddddkeke, PS)”, the figure is 0%; as for CAGGGAGTCAGACCTA (sugars k3 d10 k3, PS), 0%; as for “CAGGTTCTTGGACTCT (sugars k3 d9 k3 e1, PS)”, 0%.
Sequence “CAGGTTCTTGGACTCT (sugars kkddddddddddkeke, PS)” yielded a target mRNA inhibition (KARPAS-229, 4 µM) of 28%.
Consider CATTCTATGCCTTTTA (sugars k3 d10 k3, PS), for which, under “KARPAS-229, 4 µM”, the target mRNA inhibition turned out to be 24%.
Take “CATTCTATGCCTTTTA (sugars kddddddddddkekek, PS)”: where the note is “KARPAS-229, 4 µM”, the target mRNA inhibition came out at 37%.
Turning to “CATTCTATGCCTTTTA (sugars kdddddddddkekeke, PS)”, the target mRNA inhibition (KARPAS-229, 4 µM) worked out at 13%.
As to “CCAATGCAACATCCAT (sugars kkkddddddddkekek, PS)”, the target mRNA inhibition (KARPAS-229, 4 µM) was 0%.
On the same count and under the same terms, as for “CCAATTTTGCATTCCA (sugars kkdddddddddkdkdk, PS)”, the figure is 42%.
In turn, “CCAATTTTGCATTCCA (sugars kkddddddddkekekk, PS)” showed a target mRNA inhibition (KARPAS-229, 4 µM) of 39%.
As for “CCACTGTGTACCCCAT (sugars k2 d8 e4 k2, PS)”, where the note is “KARPAS-229, 4 µM”, the target mRNA inhibition was 44%.
On the same count and under the same terms, to “CCACTGTGTACCCCAT (sugars k2 d9 e3 k2, PS)” belongs 64%.
Where the note is “KARPAS-229, 4 µM”, “CCATTCTATGCCTTTT (sugars k2 d8 e4 k2, PS)” returned a target mRNA inhibition of 17%.
“CCATTCTATGCCTTTT (sugars k2 d9 e3 k2, PS)” registered a target mRNA inhibition (KARPAS-229, 4 µM) of 50%.
Take “CCATTCTATGCCTTTT (sugars k3 d9 k3 e1, PS)”: the target mRNA inhibition is 31% (KARPAS-229, 0.44444 µM); 44% (KARPAS-229, 1.33333 µM); 58% and 70% (KARPAS-229, 4 µM); 78% (KARPAS-229, 12 µM).
Turning to “CCCAATGCAACATCCA (sugars k3 d9 k3 e1, PS)”, the target mRNA inhibition (KARPAS-229, 4 µM) was found to be 0%.
In turn, “CCCAATGCAACATCCA (sugars kddddddddddkekek, PS)” registered a target mRNA inhibition (KARPAS-229, 4 µM) of 0%.
The sequence “CCCAATGCAACATCCA (sugars kekdddddddddeekk, PS)” came in with a target mRNA inhibition (KARPAS-229, 4 µM) of 0%.
In turn, “CCCAATGCAACATCCA (sugars kkddddddddddkeke, PS)” came in with a target mRNA inhibition (KARPAS-229, 4 µM) of 0%.
Same read-out and setting: as for CCTATACAGCTAGGCC (sugars k3 d10 k3, PS), the figure is 0%; as for “CCTTCTGCAGGGAGTC (sugars kkddddddddkekekk, PS)”, 0%; as for “CGGTCTTTGAGGTCTG (sugars k3 d9 k3 e1, PS)”, 32%.
Turning to CGGTCTTTGAGGTCTG (sugars k3 d10 k3, PS), the target mRNA inhibition (KARPAS-229, 4 µM) amounted to 32%.
Consider “CGGTCTTTGAGGTCTG (sugars kkddddddddddkeke, PS)”, for which the target mRNA inhibition is 31% (KARPAS-229, 0.44444 µM); 29% (KARPAS-229, 1.33333 µM); 43% and 46% (KARPAS-229, 4 µM); 57% (KARPAS-229, 12 µM).
“CGGTCTTTGAGGTCTG (sugars kkddddddddkekekk, PS)” yielded a target mRNA inhibition (KARPAS-229, 4 µM) of 33%.
Under “KARPAS-229, 4 µM”, “CGGTCTTTGAGGTCTG (sugars kkkddddddddkekek, PS)” yielded a target mRNA inhibition of 56%.
Where the note is “KARPAS-229, 4 µM”, CGGTGTATTTCCCTGT (sugars k3 d10 k3, PS) had a target mRNA inhibition of 0%.
CTCTAAACCATTCTAT (sugars k3 d10 k3, PS) returned a target mRNA inhibition (KARPAS-229, 4 µM) of 0%.
As to “CTGATATGATACCTAA (sugars k3 d2 m1 d7 k3, PS)”, the target mRNA inhibition reads like this: (A-431, 0.00412 µM) 1%; (A-431, 0.01225 µM) 14%; (A-431, 0.03704 µM) 31%; (A-431, 0.11111 µM) 56%; (A-431, 0.33333 µM) 74%; (A-431, 1 µM) 79%.
Regarding “CTGATATGATACCTAA (sugars k3 d10 k3, linkages s4 [mop]1 s10)”, the target mRNA inhibition reads like this: (A-431, 0.00412 µM) 11%; (A-431, 0.01225 µM) 22%; (A-431, 0.03704 µM) 29%; (A-431, 0.11111 µM) 56%; (A-431, 0.33333 µM) 76%; (A-431, 1 µM) 78%.
“CTGAUATGATACCTAA (sugars k3 d1 m1 d8 k3, PS)” returned a target mRNA inhibition (A-431, 0.00412 µM) of 6%; a target mRNA inhibition (A-431, 0.01225 µM) of 23%; a target mRNA inhibition (A-431, 0.03704 µM) of 41%; a target mRNA inhibition (A-431, 0.11111 µM) of 64%; a target mRNA inhibition (A-431, 0.33333 µM) of 82%; a target mRNA inhibition (A-431, 1 µM) of 82%.
The sequence “CTGTCACATCTCCACA (sugars k2 d8 e4 k2, PS)” registered a target mRNA inhibition (KARPAS-229, 4 µM) of 11%.
“CTTCTGCAGGGAGTCA (sugars k2 d8 e4 k2, PS)”: for the setting “KARPAS-229, 4 µM”, the target mRNA inhibition is 0%.
Under “KARPAS-229, 4 µM”, “CTTCTGCAGGGAGTCA (sugars kkddddddddkekekk, PS)” registered a target mRNA inhibition of 0%.
Regarding CTTGGTCTTGACCTCC (sugars k3 d10 k3, PS), for the setting “KARPAS-229, 4 µM”, the target mRNA inhibition worked out at 41%.
Where the note is “KARPAS-229, 4 µM”, “CTTGGTCTTGACCTCC (sugars kddddddddddkekek, PS)” returned a target mRNA inhibition of 0%.
As to CTTGTCTAGTGTCATG (sugars k3 d10 k3, PS), the target mRNA inhibition (KARPAS-229, 4 µM) worked out at 58%.
Take GAATTTTGTGACTGTA (sugars k3 d10 k3, PS): the target mRNA inhibition was 41% (KARPAS-229, 0.44444 µM); 66% (KARPAS-229, 1.33333 µM); 57% and 67% (KARPAS-229, 4 µM); 78% (KARPAS-229, 12 µM).
In the case of GACTGTATTACCTATA (sugars k3 d10 k3, PS), the target mRNA inhibition (KARPAS-229, 4 µM) is 41%.
Turning to GAGGAAGTGAGTCTCA (sugars k3 d10 k3, PS), under “KARPAS-229, 4 µM”, the target mRNA inhibition came out at 0%.
